Test results as given in ChEMBL document CHEMBL4184156, “Repurposing Hsp90 inhibitors as antibiotics targeting histidine kinases” (Bioorg Med Chem Lett, 2017).
pIC50: −log10 of the molar value. Values after ≈ are worked out from the molar mass of the structure shown. One block for each compound: values may come before it.

Experiments:
[1] = test system: Staphylococcus epidermidis; test: Antimicrobial activity against Staphylococcus epidermidis ATCC 35984 after 10 hrs; type: functional; settings: ATCC 35984, 10 h
[2] = target: T1, Sensor protein kinase WalK (Staphylococcus epidermidis (strain ATCC 35984 / RP62A), UniProt Q5HK19); test: Inhibition of recombinant Staphylococcus epidermidis ATCC 35984 N-terminal GB1-tagged YycG expressed in Escherichia coli BL21 (DE3) preincubated for 30 mins followed by ATP addition after 30 mins by kinase-glo assay
T1 sequence (Q5HK19 whole entry): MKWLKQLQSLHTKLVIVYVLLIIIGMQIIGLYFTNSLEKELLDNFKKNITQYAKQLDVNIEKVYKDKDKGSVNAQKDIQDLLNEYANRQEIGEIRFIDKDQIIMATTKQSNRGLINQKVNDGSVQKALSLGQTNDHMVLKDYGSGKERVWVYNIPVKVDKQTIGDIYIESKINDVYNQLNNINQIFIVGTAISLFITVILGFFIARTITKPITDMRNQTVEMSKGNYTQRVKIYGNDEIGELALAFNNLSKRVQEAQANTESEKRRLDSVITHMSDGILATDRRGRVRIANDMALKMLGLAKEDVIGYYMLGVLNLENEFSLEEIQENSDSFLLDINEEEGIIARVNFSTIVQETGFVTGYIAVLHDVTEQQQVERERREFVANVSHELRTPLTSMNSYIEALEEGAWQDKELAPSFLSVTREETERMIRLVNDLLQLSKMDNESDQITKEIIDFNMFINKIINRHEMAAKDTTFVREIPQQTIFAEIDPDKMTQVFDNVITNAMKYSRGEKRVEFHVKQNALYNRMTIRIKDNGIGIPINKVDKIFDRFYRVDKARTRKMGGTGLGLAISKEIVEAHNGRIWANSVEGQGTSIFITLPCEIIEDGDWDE

Escherichia coli [3] = test: Antimicrobial activity against Escherichia coli DC2 after 20 hrs by Mueller-Hinton Broth microdilution method; type: functional; settings: DC2, 20 h
[4] = target: T2, Sensor protein kinase WalK family protein (Streptococcus pneumoniae PCS8203, UniProt A0A0H2UQD0); test: Inhibition of Streptococcus pneumoniae VicK preincubated for 30 mins followed by [gamma-33P]ATP addition after 30 mins by SDS-PAGE method
T2 sequence (A0A0H2UQD0 whole entry): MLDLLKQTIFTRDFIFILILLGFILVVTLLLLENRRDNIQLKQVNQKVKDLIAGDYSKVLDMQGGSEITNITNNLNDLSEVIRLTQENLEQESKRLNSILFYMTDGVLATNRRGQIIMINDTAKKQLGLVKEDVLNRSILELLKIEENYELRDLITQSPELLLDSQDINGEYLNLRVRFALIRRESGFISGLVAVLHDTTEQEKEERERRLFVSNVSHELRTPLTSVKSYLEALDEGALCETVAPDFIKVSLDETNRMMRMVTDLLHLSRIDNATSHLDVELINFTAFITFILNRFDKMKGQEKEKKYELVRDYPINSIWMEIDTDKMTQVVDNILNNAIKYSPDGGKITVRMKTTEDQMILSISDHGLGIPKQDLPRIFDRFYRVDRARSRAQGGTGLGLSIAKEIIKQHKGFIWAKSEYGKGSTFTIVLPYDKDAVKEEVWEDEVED

Bacillus subtilis = test: Antimicrobial activity against Bacillus subtilis 3610 after 20 hrs by Mueller-Hinton Broth microdilution method; type: functional; settings: subsp. subtilis str. NCIB 3610, 20 h
[5] = Inhibition of Thermotoga maritima HK853 preincubated for 30 mins followed by B-ATPgammaS addition after 1 hr in dark by in-gel fluorescence analysis
Chemotaxis protein CheA = target: T3, Chemotaxis protein CheA (Escherichia coli (strain K12), UniProt P07363); test: Inhibition of Escherichia coli CheA preincubated for 30 mins followed by [gamma-33P]ATP addition after 30 mins by SDS-PAGE method
T3 sequence (P07363 whole entry): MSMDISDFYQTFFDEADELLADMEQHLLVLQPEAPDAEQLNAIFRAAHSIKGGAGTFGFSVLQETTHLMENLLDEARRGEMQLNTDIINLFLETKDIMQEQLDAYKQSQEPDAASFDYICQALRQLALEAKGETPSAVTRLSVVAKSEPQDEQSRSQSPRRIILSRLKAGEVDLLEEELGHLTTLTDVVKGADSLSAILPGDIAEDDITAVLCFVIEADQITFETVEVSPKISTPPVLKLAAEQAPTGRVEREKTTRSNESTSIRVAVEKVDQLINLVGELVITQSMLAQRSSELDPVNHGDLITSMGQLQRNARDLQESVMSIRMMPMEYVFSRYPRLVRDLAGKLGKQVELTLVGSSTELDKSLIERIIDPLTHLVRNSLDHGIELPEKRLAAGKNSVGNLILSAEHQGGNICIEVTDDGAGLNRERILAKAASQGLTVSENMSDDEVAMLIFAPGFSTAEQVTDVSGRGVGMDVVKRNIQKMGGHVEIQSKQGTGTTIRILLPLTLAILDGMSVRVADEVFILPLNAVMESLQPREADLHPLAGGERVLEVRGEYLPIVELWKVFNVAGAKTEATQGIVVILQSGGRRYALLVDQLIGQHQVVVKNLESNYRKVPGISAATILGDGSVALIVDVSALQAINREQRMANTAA

Staphylococcus aureus = test: Antimicrobial activity against Staphylococcus aureus 20231 after 24 hrs by double dilution method; type: functional; settings: Staphylococcus aureus, 20231, 24 h
Escherichia coli [6] = test: Antimicrobial activity against Escherichia coli CFT073 after 24 hrs by double dilution method; type: functional; settings: CFT073, 24 h
[7] = target: T4, Phosphate regulon sensor protein phoR (Staphylococcus aureus subsp. aureus CN1, UniProt T1Y9P4); test: Inhibition of Staphylococcus aureus DHp-catalytic domain PhoR autophosphorylation expressed in Escherichia coli RIL in presence of gamma-32P-ATP by SDS-PAGE analysis
T4 sequence (T1Y9P4 whole entry): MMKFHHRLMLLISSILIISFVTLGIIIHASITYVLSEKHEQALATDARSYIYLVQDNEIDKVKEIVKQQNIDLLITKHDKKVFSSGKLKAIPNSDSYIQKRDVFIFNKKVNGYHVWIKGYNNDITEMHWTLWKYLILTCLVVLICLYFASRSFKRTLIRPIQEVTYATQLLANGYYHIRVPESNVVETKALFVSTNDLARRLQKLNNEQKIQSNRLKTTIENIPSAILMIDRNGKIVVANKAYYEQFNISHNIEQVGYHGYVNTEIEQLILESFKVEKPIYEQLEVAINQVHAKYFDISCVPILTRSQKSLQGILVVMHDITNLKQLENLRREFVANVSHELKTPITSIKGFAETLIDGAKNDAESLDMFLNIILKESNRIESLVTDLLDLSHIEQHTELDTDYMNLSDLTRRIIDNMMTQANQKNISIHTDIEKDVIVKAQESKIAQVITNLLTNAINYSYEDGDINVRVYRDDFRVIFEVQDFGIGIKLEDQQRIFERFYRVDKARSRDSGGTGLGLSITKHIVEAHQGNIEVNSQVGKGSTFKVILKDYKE

[8] = target: T5, Phosphate regulon sensor protein PhoR (Escherichia coli (strain K12), UniProt P08400); test: Inhibition of Escherichia coli DHp-catalytic domain PhoR autophosphorylation expressed in Escherichia coli RIL in presence of gamma-32P-ATP by SDS-PAGE analysis
T5 sequence (P08400 whole entry): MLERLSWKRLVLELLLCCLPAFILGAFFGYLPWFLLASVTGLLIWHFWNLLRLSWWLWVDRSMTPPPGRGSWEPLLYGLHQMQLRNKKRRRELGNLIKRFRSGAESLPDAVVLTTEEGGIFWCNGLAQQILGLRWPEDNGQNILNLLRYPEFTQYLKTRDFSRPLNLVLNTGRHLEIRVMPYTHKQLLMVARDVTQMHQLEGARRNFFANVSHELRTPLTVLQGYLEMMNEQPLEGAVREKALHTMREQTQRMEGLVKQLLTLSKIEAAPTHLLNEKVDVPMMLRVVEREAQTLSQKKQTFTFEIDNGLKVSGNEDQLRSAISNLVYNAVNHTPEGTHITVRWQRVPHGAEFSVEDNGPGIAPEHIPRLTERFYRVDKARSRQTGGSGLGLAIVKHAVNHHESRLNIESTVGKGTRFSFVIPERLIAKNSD

MIC [1]: 1.6 µg/mL (≈ 3.06 µM) | pIC50 [2]: 4.62
SMILES: O=C(O)c1cccc(-c2ccc(/C=c3\sc4n(c3=O)C(c3ccc(F)cc3)C=C(c3ccccc3)N=4)o2)c1 (stereo unspecified)

SMILES: O=c1cc(-c2ccc(O)c(O)c2)oc2cc(O)cc(O)c12 [LUTEOLIN]
MIC (Escherichia coli [3]): 8 µg/mL (≈ 27.9 µM) | pIC50 [4]: 3.67 | MIC (Bacillus subtilis): > 128 µg/mL | pIC50 [5]: 4.82 | pIC50 (Chemotaxis protein CheA): 3.95

MIC (Staphylococcus aureus): 8 µg/mL (≈ 29.4 µM) | MIC (Escherichia coli [6]): > 500 µg/mL | pIC50 [7]: 3.67 | pIC50 [8]: 4.80
SMILES: CCC(c1ccc(O)cc1)C(CC)c1ccc(F)cc1 (stereo unspecified)
